Data as given in ChEMBL document CHEMBL3044674, “Design and synthesis of positional isomers of 1-alkyl-2-trifluoromethyl-5 or 6-substituted benzimidazoles and their antimicrobial activity” (2013).
Values after ≈ are worked out from the molar mass of the structure shown.

Experiments:
Format in all cases: functional
Candida albicans = assay: Antifungal activity against Candida albicans MTCC 227 after 24 hr by paper disk method; details: MTCC 227, 24 h
Rhizopus arrhizus = assay: Antifungal activity against Rhizopus oryzae MTCC 262 after 24 hr by paper disk method; details: MTCC 262, 24 h
Saccharomyces cerevisiae = assay: Antifungal activity against Saccharomyces cerevisiae MTCC 36 after 24 hr by paper disk method; details: MTCC 36, 24 h
Aspergillus niger = assay: Antifungal activity against Aspergillus niger MTCC 1344 after 24 hr by paper disk method; details: MTCC 1344, 24 h
Escherichia coli = assay: Antibacterial activity against Escherichia coli NCIM 2068 after 18 to 20 hr by plate method
Bacillus subtilis = assay: Antibacterial activity against Bacillus subtilis NCIM 2921 after 18 to 20 hr by plate method
Staphylococcus aureus = assay: Antibacterial activity against Staphylococcus aureus NCIM 2079 after 18 to 20 hr by plate method
Pseudomonas aeruginosa = assay: Antibacterial activity against Pseudomonas aeruginosa NCIM 2957 after 18 to 20 hr by plate method

MIC (Candida albicans) | MIC (Rhizopus arrhizus) | MIC (Saccharomyces cerevisiae) | MIC (Aspergillus niger) | MIC (Escherichia coli) | MIC (Bacillus subtilis) | MIC (Staphylococcus aureus) | MIC (Pseudomonas aeruginosa) | SMILES | Activity (Escherichia coli) | Activity (Bacillus subtilis) | Activity (Staphylococcus aureus) | Activity (Pseudomonas aeruginosa)
700 mg/L (≈ 1880 µM) | 700 mg/L (≈ 1880 µM) | 750 mg/L (≈ 2020 µM) | 650 mg/L (≈ 1750 µM) | – | – | – | – | O=[N+]([O-])c1ccc2c(c1)nc(C(F)(F)C(F)(F)F)n2CCCCCl | – | – | – | –
300 mg/L (≈ 975 µM) | 200 mg/L (≈ 650 µM) | 400 mg/L (≈ 1300 µM) | 300 mg/L (≈ 975 µM) | 200 mg/L (≈ 650 µM) | 350 mg/L (≈ 1140 µM) | 300 mg/L (≈ 975 µM) | 400 mg/L (≈ 1300 µM) | O=[N+]([O-])c1ccc2c(c1)nc(C(F)(F)F)n2CCCCl | Dose-dependent effect | Dose-dependent effect | Dose-dependent effect | Dose-dependent effect
400 mg/L (≈ 1260 µM) | 600 mg/L (≈ 1890 µM) | 600 mg/L (≈ 1890 µM) | 550 mg/L (≈ 1730 µM) | 700 mg/L (≈ 2210 µM) | 800 mg/L (≈ 2520 µM) | 800 mg/L (≈ 2520 µM) | 900 mg/L (≈ 2840 µM) | CCOC(=O)Cn1c(C(F)(F)F)nc2cc([N+](=O)[O-])ccc21 | Dose-dependent effect | Dose-dependent effect | Dose-dependent effect | Dose-dependent effect
700 mg/L (≈ 2700 µM) | 700 mg/L (≈ 2700 µM) | 850 mg/L (≈ 3280 µM) | 750 mg/L (≈ 2890 µM) | – | – | – | – | CCn1c(C(F)(F)F)nc2cc([N+](=O)[O-])ccc21 | – | – | – | –
400 mg/L (≈ 1060 µM) | 400 mg/L (≈ 1060 µM) | 500 mg/L (≈ 1330 µM) | 700 mg/L (≈ 1860 µM) | – | – | – | – | CCOC(=O)Cn1c(C(F)(F)F)nc2ccc(C(=O)c3ccccc3)cc21 | – | – | – | –
800 mg/L (≈ 2180 µM) | 950 mg/L (≈ 2590 µM) | 900 mg/L (≈ 2450 µM) | 850 mg/L (≈ 2310 µM) | 900 mg/L (≈ 2450 µM) | – | – | 800 mg/L (≈ 2180 µM) | CCOC(=O)Cn1c(C(F)(F)C(F)(F)F)nc2cc([N+](=O)[O-])ccc21 | Dose-dependent effect | Dose-dependent effect | Dose-dependent effect | Dose-dependent effect
800 mg/L (≈ 2150 µM) | 800 mg/L (≈ 2150 µM) | 750 mg/L (≈ 2020 µM) | 700 mg/L (≈ 1880 µM) | – | – | – | – | O=[N+]([O-])c1ccc2nc(C(F)(F)C(F)(F)F)n(CCCCCl)c2c1 | – | – | – | –
500 mg/L (≈ 1550 µM) | 500 mg/L (≈ 1550 µM) | 800 mg/L (≈ 2490 µM) | 450 mg/L (≈ 1400 µM) | 600 mg/L (≈ 1870 µM) | 750 mg/L (≈ 2330 µM) | 800 mg/L (≈ 2490 µM) | 800 mg/L (≈ 2490 µM) | O=[N+]([O-])c1ccc2c(c1)nc(C(F)(F)F)n2CCCCCl | Dose-dependent effect | Dose-dependent effect | Dose-dependent effect | Dose-dependent effect
900 mg/L (≈ 2450 µM) | – | 900 mg/L (≈ 2450 µM) | 800 mg/L (≈ 2180 µM) | – | – | 800 mg/L (≈ 2180 µM) | – | CCOC(=O)Cn1c(C(F)(F)C(F)(F)F)nc2ccc([N+](=O)[O-])cc21 | Dose-dependent effect | Dose-dependent effect | Dose-dependent effect | Dose-dependent effect
400 mg/L (≈ 1300 µM) | 300 mg/L (≈ 975 µM) | 500 mg/L (≈ 1630 µM) | 350 mg/L (≈ 1140 µM) | 400 mg/L (≈ 1300 µM) | 300 mg/L (≈ 975 µM) | 350 mg/L (≈ 1140 µM) | 450 mg/L (≈ 1460 µM) | O=[N+]([O-])c1ccc2nc(C(F)(F)F)n(CCCCl)c2c1 | Dose-dependent effect | Dose-dependent effect | Dose-dependent effect | Dose-dependent effect
700 mg/L (≈ 1640 µM) | 850 mg/L (≈ 1990 µM) | 700 mg/L (≈ 1640 µM) | 900 mg/L (≈ 2110 µM) | 600 mg/L (≈ 1410 µM) | 850 mg/L (≈ 1990 µM) | 900 mg/L (≈ 2110 µM) | 900 mg/L (≈ 2110 µM) | CCOC(=O)Cn1c(C(F)(F)C(F)(F)F)nc2ccc(C(=O)c3ccccc3)cc21 | Dose-dependent effect | Dose-dependent effect | Dose-dependent effect | Dose-dependent effect
700 mg/L (≈ 1640 µM) | 800 mg/L (≈ 1880 µM) | 800 mg/L (≈ 1880 µM) | 1000 mg/L (≈ 2350 µM) | 650 mg/L (≈ 1520 µM) | 900 mg/L (≈ 2110 µM) | 700 mg/L (≈ 1640 µM) | 700 mg/L (≈ 1640 µM) | CCOC(=O)Cn1c(C(F)(F)C(F)(F)F)nc2cc(C(=O)c3ccccc3)ccc21 | Dose-dependent effect | Dose-dependent effect | Dose-dependent effect | Dose-dependent effect
500 mg/L (≈ 1330 µM) | 450 mg/L (≈ 1200 µM) | 600 mg/L (≈ 1590 µM) | 800 mg/L (≈ 2130 µM) | – | – | – | – | CCOC(=O)Cn1c(C(F)(F)F)nc2cc(C(=O)c3ccccc3)ccc21 | – | – | – | –
600 mg/L (≈ 1870 µM) | 400 mg/L (≈ 1240 µM) | 700 mg/L (≈ 2180 µM) | 650 mg/L (≈ 2020 µM) | – | 700 mg/L (≈ 2180 µM) | 800 mg/L (≈ 2490 µM) | – | O=[N+]([O-])c1ccc2nc(C(F)(F)F)n(CCCCCl)c2c1 | Dose-dependent effect | Dose-dependent effect | Dose-dependent effect | Dose-dependent effect
– | 800 mg/L (≈ 2960 µM) | 900 mg/L (≈ 3330 µM) | – | – | – | – | – | N#CCn1c(C(F)(F)F)nc2ccc([N+](=O)[O-])cc21 | – | – | – | –
900 mg/L (≈ 3470 µM) | 850 mg/L (≈ 3280 µM) | 800 mg/L (≈ 3090 µM) | 800 mg/L (≈ 3090 µM) | – | – | – | – | CCn1c(C(F)(F)F)nc2ccc([N+](=O)[O-])cc21 | – | – | – | –
700 mg/L (≈ 2600 µM) | 700 mg/L (≈ 2600 µM) | 750 mg/L (≈ 2790 µM) | 600 mg/L (≈ 2230 µM) | – | – | – | – | C#CCn1c(C(F)(F)F)nc2cc([N+](=O)[O-])ccc21 | – | – | – | –
600 mg/L (≈ 2230 µM) | 700 mg/L (≈ 2600 µM) | 700 mg/L (≈ 2600 µM) | 650 mg/L (≈ 2410 µM) | – | – | – | – | C#CCn1c(C(F)(F)F)nc2ccc([N+](=O)[O-])cc21 | – | – | – | –
450 mg/L (≈ 1420 µM) | 700 mg/L (≈ 2210 µM) | 600 mg/L (≈ 1890 µM) | 500 mg/L (≈ 1580 µM) | 800 mg/L (≈ 2520 µM) | 950 mg/L (≈ 2990 µM) | 900 mg/L (≈ 2840 µM) | 850 mg/L (≈ 2680 µM) | CCOC(=O)Cn1c(C(F)(F)F)nc2ccc([N+](=O)[O-])cc21 | Dose-dependent effect | Dose-dependent effect | Dose-dependent effect | Dose-dependent effect
